For data set [1], the system named is MCF-7 cells. Kind of data set: MTT anti-proliferative assay, MCF-7. Format: cell-based, human. As to conditions: Homo sapiens, MCF7, 48 h, read-out: MCF-7 IC50 ± SD. On the procedure: All cell lines were purchased from Cell Bank of Shanghai Institute of Biochemistry and Cell Biology, Chinese Academy of Sciences (Shanghai, China). Human breast carcinoma cells (MCF-7 and MCF-7/DOX), breast epithelial cells (MCF-10A) and normal human liver cells (LO2) were maintained in RPMI-1640 medium. All cells were supplemented with 12% fetal bovine serum containing 50 μg/ml penicillin and 50 μg/ml streptomycin. Cells were grown to 80% confluency in a tissue culture flask at 37 °C in a humidified atmosphere containing 5% CO2, and then were trypsinized with 1 × Trypsin-Versene and split. The MCF-7/DOX cell line we used was established from its parental cell line MCF-7 cell by gradually increasing the concentration of DOX to which the cells were exposed in a stepwise manner over a period of 8 months. […] The cells were incubated in drug-free medium for at least 1 week before use.
Cells (MCF-7, MCF-7/DOX, MCF-10A, LO2) were seeded in 96-well plates at a density of 3,000–6,000 cells per well. The cells were incubated overnight (16 h) in a humidified 5% CO2 incubator at 37 °C. After media removal, different concentrations of test compounds were added in triplicate to the plates in 200 μL of fresh media and were incubated with the cells at 37 °C for 48 h. […] Cell viability was evaluated using 3-(4, 5-dimethylthiazolyl)-2,5-diphenyltetrazoliumbromide (MTT). The absorbance was read by an ELISA reader (SpectraMax Plus384, Molecular Devices, Sunnyvale, CA) at a test wavelength of 570 nm and a reference wavelength of 630 nm. Cell viability was calculated using the following formula: […]
Background: Formazan colour is commonly taken as a measure of viable cells.

Data set [2] concerns STAT3. As to the kind of experiment: Western blot of STAT3 phosphorylation. The data set is classed as cell-based, human. As to conditions: MCF-7 and MCF-7/DOX cells. As to the method:
(§1) MCF-7 or MCF-7/DOX cells were incubated with various concentrations of 6b for 24 h. After trypsinization, cells were treated with 1× RIPA lysis buffer (50 mM Tris–HCl, pH 7.4, 150 mM NaCl, 0.25% deoxycholic acid, 1% NP-40, 1 mM EDTA and protease inhibitors) (Amresco, Solon, USA) to extract the total proteins. An aliquot of proteins from the total cell lysates (30 to 60 μg/lane) was separated by sodium dodecyl sulfate (10%) polyacrylamide gel electrophoresis (SDS–PAGE, Bio-Rad Laboratories, Hercules, CA), wet-transferred to NC membrane (Bio-Rad Laboratories, Hercules, CA) and blotted with primary antibodies specific for STAT3, p-STAT3, p-Jak2, Jak2, p-Src, Src, Erk, P-Erk, PARP, cleaved PARP, Bcl-2, Bax, Cyclin D1, P-gp and GAPDH. Bound immuno-complexes were detected using ChemiDOC™ XRS + system (Bio-Rad Laboratories, Hercules, CA).
For orientation: A western blot detects proteins with antibodies after separation by electrophoresis.

Another data set deals with Bcl-2. As to the kind of experiment: Western blot of Bcl-2. The data set is classed as cell-based, human. The settings on record: MCF-7 and MCF-7/DOX cells, 24 h. As to the method: as §1
In data set [3] the test system is MCF-7 cells. As to the kind of experiment: Annexin V-APC/7-AAD flow cytometry of apoptosis, MCF-7. Format: cell-based, human. As to conditions: 24 h. On the procedure:
(§2) MCF-7, MCF-7/DOX or MCF-10A cells, at a density of 2.5 × 10^5 cells per well, were cultured in regular growth medium in 6-well plates for 24 h and treated in duplicate with different concentrations of 6b or curcumin for 24 h. The cells were harvested, washed and stained with 5 μL of Annexin V-APC and 5 μL of 7-AAD at room temperature for 15 min. Cells were then analyzed by flow cytometry (488 nm excitation and 600 nm emission filters) using a BD FACSCalibur flow cytometer (Becton & Dickinson Company, Franklin Lakes, NJ).
On the technique in general: In flow cytometry, cells or beads pass a laser one at a time.

In a further data set the test system is MCF-10A cells. Kind of data set: Annexin V-APC/7-AAD flow cytometry of apoptosis, MCF-10A. The data set is classed as cell-based, human. As to conditions: concentrations up to 4 μM. As to the method: as §2
Data set [4] has as its system MCF-7 cells. Kind of data set: Flow cytometry of the cell cycle, MCF-7. The data set is classed as cell-based, human. As to conditions: MCF-7, 24 h. As to the method:
MCF-7 or MCF-7/DOX cells were plated in 6-well culture plates (1.5 × 10^5 cells per well). After incubation overnight, various concentrations of 6b or curcumin were added and cells were incubated for 24 h. Cells were harvested, washed with cold PBS, and incubated with pre-cooled 70% ethanol for a minimum of 4 h at 4 °C to fix them. The cells were then centrifuged, carefully aspirated from the supernatant, and re-suspended in a propidium iodide (final concentration, 40 μg/ml) and RNase A (final concentration, 100 μg/ml) solution at a final cell density of 0.5 × 10^6 cells/ml. The suspension was incubated at 37 °C for 30 min prior to analysis by flow cytometry.

The test system of a further data set is MCF-7/DOX cells. Kind of data set: ROS detection by DCFH-DA flow cytometry, MCF-7/DOX. The data set is classed as cell-based, human. As to conditions: different concentrations (1, 2, 4 μM), 24 h. On the procedure: MCF-7 or MCF-7/DOX cells were seeded at a density of 3 × 10^5 cells per well of a 6-well plate and treated with various concentrations of 6b (0, 1, 2, 4 μM) or 4 μM curcumin for 24 h. DCFH-DA was dissolved in serum-free medium and diluted to a final concentration of 10 μM. After treatment with 6b, the growth media was replaced with serum-free medium containing the probe. After incubation for 20 min at 37 °C, cells were washed with serum-free medium twice, digested by trypsin and resuspended in pre-warmed PBS buffer. The samples were then subjected to a flow cytometry assay using a BD FACSCalibur flow cytometer (Becton & Dickinson Company, Franklin Lakes, NJ).

Data set [5] has as its system STAT3. Kind of data set: IL-6 induced STAT3 phosphorylation (western blot). As to conditions: 6 h, IL-6 50 ng/mL 30 min. The data set is classed as cell-based, human. As to the method:
MCF-7 or MCF-7/DOX cells were seeded in 6-well plates and allowed to adhere overnight. The following day, the cells were serum-starved. The cells were then left untreated or were treated with 6b (0.5–4 μM). After 6 h, the untreated and 6b-treated cells were stimulated with IL-6 (50 ng/ml). The cells were harvested after 30 min and analyzed by western blot.

The term IC50 denotes the concentration that inhibits the measured activity by half. In general, melting point refers to the temperature of the solid-liquid transition. Take `COc1ccc(/C=C/C(=O)N2CCN(C(=O)C3=Cc4cc(Br)ccc4S3(=O)=O)CC2)cc1` [Compound 6b, (E)-1-(4-(5-bromo-1,1-dioxidobenzo[b]thiophene-2-carbonyl)piperazin-1-yl)-3-(4-methoxyphenyl)prop-2-en-1-one]: the melting point lay within 250 to 251 °C. In the data set on MCF-7 cells [1], the IC50 stood at 520 ± 160 nM. In addition, in the data set with STAT3 [2] (1.0 μM), the p-STAT3 level result is given as “significantly inhibited”. Also, in the data set with STAT3 [2] (24 h), the “STAT3 phosphorylation at the Ser727 residue” value was “little effect”, the “STAT3 phosphorylation at the pTyr705 residue” value is recorded as “dose-dependent inhibition” and the “total STAT3 protein level” value is recorded as “little effect”. Further, the “expression of Bcl-2 (protein)” value with Bcl-2 is “inhibited”. The same molecule registered an apoptosis rate in the data set on MCF-7 cells [3] (1 μM) of 15.7%. For the same molecule, the apoptosis rate in the data set on MCF-7 cells [3] (2 μM) was 37.9%. In the data set on MCF-7 cells [3] (4 μM), the apoptosis rate is 67.2%. Moreover, the apoptosis result in the data set on MCF-10A cells is “little”. Further, in the data set on MCF-7 cells [4], the “cells in the Sub-G1 phase” value is “significant increase” and the “percentage of cells in S phase” value is reported as “increased”. Also, in the data set on MCF-7/DOX cells, the “increase of ROS levels” value is reported as 2–8 fold. For the same molecule, the “STAT3 phosphorylation induced by IL-6” value in the data set on STAT3 [5] (MCF-7, 4 μM) was “almost completely abolished”. In addition, the “IL-6-induced phosphorylation levels of STAT3” value in the data set on STAT3 [5] (MCF-7, low concentration (0.5–4 μM tested)) is listed as “decreased”.

The values are drawn from paper PMC5387716, “Discovery of monocarbonyl curcumin-BTP hybrids as STAT3 inhibitors for drug-sensitive and drug-resistant breast cancer therapy” (Scientific Reports, 2017).
